The text below walks through data of patent US20250019389A1, “HETEROCYCLIC AGONISTS” (Gasherbrum Bio, Inc., priority 2023, published 2025).

What is called EC50 is the concentration at which the effect is half-maximal. Higher therefore signals weaker potency.

The target in the assay is GLP-1 Receptor (Homo sapiens (Human), UniProt P43220). The assay can be described thus: GLP-1R agonist cAMP stimulation assay. The class given is cell-based. The following applies: cAMP stimulation in HEK293/GLP1R/CRE-LUC cells, 30 min at 37° C., cAMP dynamic 2 Kit (Cisbio). How it is done: Activation of GLP-1 receptor is known to stimulate cyclic AMP (cAMP) production in cells which indicates primary coupling to the G as subunit of the G protein heterotrimeric complex.
GLP-1 Receptor, sequence (P43220 24-463, species assumed): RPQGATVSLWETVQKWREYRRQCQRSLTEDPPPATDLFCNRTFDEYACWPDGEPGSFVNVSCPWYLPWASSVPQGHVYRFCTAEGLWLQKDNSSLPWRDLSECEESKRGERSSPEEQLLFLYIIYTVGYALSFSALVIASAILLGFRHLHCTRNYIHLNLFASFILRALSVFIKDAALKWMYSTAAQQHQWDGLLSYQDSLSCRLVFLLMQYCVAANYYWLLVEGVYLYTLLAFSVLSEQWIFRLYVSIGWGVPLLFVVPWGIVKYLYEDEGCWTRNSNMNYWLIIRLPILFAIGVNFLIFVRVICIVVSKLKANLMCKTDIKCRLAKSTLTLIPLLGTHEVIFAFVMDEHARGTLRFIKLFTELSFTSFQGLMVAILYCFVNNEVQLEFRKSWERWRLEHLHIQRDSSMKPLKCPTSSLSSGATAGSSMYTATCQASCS
To optimize functional activity directed toward G αs coupling, a HEK293/CRE-Luc cell line developed by HDB stably expressing the GLP-1 Receptor was used. 200× concentration of compound working solutions were prepared (Agilent Technologies Bravo) with ½ log serial dilution in 384-well Echo LDV plate (Labcyte, Cat #LP-0200). 50 nL/well 200× concentration of compound working solutions were moved to 384-well white low volume plate (Greiner, Cat #784075) using Labcyte ECH0550.1×10^5 cells/mL HEK293/GLP1R/CRE-LUC (HD Biosciences) cell suspensions prepared with assay buffer [DPBS containing 0.5 mM IBMX (Sigma, Cat #I5879) and 0.1% BSA (GENVIEW, Cat #FA016-100 g)], 10 μL cell suspensions were added to each well of previous generated assay plate which already contains 50 nL compound at 200× concentration using ThermoFisher Multidrop Combi (1000 cells/well). Seal the plate and incubate at 37° C. with 5% CO2 for 30 min.
After incubation the cAMP assay signal was generated using cAMP dynamic 2 Kit (Cisbio). 5 μL cAMP-d2 working solution was added to each well, followed with 5 μL Anti-cAMP antibody-cryptate working solution added to each well using ThermoFisher Multidrop Combi. Incubate at room temperature for 1 hour protected from light. Read the fluorescence at 665 and 615 nm with Reader PerkinElmer EnVision.
`CCP(=O)(c1ccc(-n2ccn(-c3c4c(nn3-c3cc(C)c(F)c(C)c3)CCN(C(=O)c3cc5cc(C6CCOCC6)ccc5n3[C@@]3(c5noc(=O)[nH]5)C[C@@H]3C)[C@H]4C)c2=O)cc1NC)C(C)O` (single isomer, unassigned) [Compound 106] registered a 50% effective concentration (EC50) of 0.029 nM.
The value for `CCP(=O)(CCO)c1ccc(-n2ccn(-c3c4c(nn3-c3cc(C)c(F)c(C)c3)CCN(C(=O)c3cc5cc(C6CCOCC6)ccc5n3[C@@]3(c5noc(=O)[nH]5)C[C@@H]3C)[C@H]4C)c2=O)cc1NC` (single isomer, unassigned) [Compound 103] was 0.012 nM.
The value for `CCP(=O)(CCO)c1ccc(-n2ccn(-c3c4c(nn3-c3cc(C)c(F)c(C)c3)CCN(C(=O)c3cc5cc(C6CCOCC6)ccc5n3[C@@]3(c5noc(=O)[nH]5)C[C@@H]3C)[C@H]4C)c2=O)cc1NC` (single isomer, unassigned) [Compound 102] was 0.017 nM; that for `CCP(=O)(c1ccc(-n2ccn(-c3c4c(nn3-c3cc(C)c(F)c(C)c3)CCN(C(=O)c3cc5cc(C6CCOCC6)ccc5n3[C@@]3(c5noc(=O)[nH]5)C[C@@H]3C)[C@H]4C)c2=O)cc1NC)C(C)O` (single isomer, unassigned) [Compound 105] was 0.035 nM; that for `CCP(=O)(c1ccc(-n2ccn(-c3c4c(nn3-c3cc(C)c(F)c(C)c3)CCN(C(=O)c3cc5cc(C6CCOCC6)ccc5n3[C@@]3(c5noc(=O)[nH]5)C[C@@H]3C)[C@H]4C)c2=O)cc1NC)C(C)O` (single isomer, unassigned) [Compound 108] was 0.031 nM.
The value for `CCP(=O)(c1ccc(-n2ccn(-c3c4c(nn3-c3cc(C)c(F)c(C)c3)CCN(C(=O)c3cc5cc(C6CCOCC6)ccc5n3[C@@]3(c5noc(=O)[nH]5)C[C@@H]3C)[C@H]4C)c2=O)cc1NC)C(C)O` (single isomer, unassigned) [Compound 107] was 0.042 nM.
